In patent US5945436A, “Pyridylmethyl nitriles, amides and thioamides useful as fungicides” (Uniroyal Chemical Company, Inc., priority 1997, dated 1999):

What was measured:
Pyricularia oryzae = test: whole plant or invertebrate; format: in vivo; conditions: for pest or weed control at 1000 µg/mL: Pyricularia oryzae, in Hordeum vulgare, foliar, 216 h, read-out: Percent Reduction of Disease, PYR ORY, barley, foliar, 1,000 mg/l; for Percent Reduction of Disease, PYR ORY: barley, foliar, 1,000 mg/l
Septoria nodorum = test: Fungal growth inhibition, treated disc on agar (SEP NOD); format: cell-based; conditions: disc dipped in 500 mg/l, 29° C.; for inhibition at 500 µg/mL: Parastagonospora nodorum, read-out: Percent Growth Inhibition, SEP NOD
Text: (§1) Filter paper discs, each 11 mm. in diameter, were dipped in each of the test solutions. The discs were allowed to air dry to drive off the acetone solvent. A number of untreated discs were used as controls.
(§2) The treated and untreated discs were then placed on agar plates and one of the following fungus species: Septoria nodorum (SEP NOD), Botrytis cinerea (BOT CIN), Fusarium oxysporum (FUS OXY), Pythium ultimum (PYT ULT), Rhizoctonia solani (RHI SOL), Colletotrichum gossypii (COL GOS), and Scierotinia minor (SCL MIN), was added to the center of each disc in the form of a culture plug with the fungus mat in contact with the paper of the test disc. Cercosporidium personatum (CER PER), was added to discs as a spore suspension (20,000 spores/ml) to the disc (two drops of spore suspension per disc), rather than a mycelial culture plug. The plates were then incubated at 29° C. in an oven.
(§3) With the exception of the discs containing Cercosporidium personatum, the discs were evaluated by first measuring the radius from the center of the fungus colony on the treated discs and on the untreated discs. Percent growth inhibition of each of the compounds tested was determined as a function of the difference between the radius of the fungus colony on the treated disc versus the radius of the fungus colony on the untreated disc.

Rhizoctonia solani = test: Fungal growth inhibition, treated disc on agar (RHI SOL); format: cell-based; conditions: disc dipped in 500 mg/l, 29° C.; for inhibition at 500 µg/mL: Rhizoctonia solani, read-out: Percent Growth Inhibition, RHI SOL
Botrytis cinerea = test: Fungal growth inhibition, treated disc on agar (BOT CIN); format: cell-based; conditions: disc dipped in 500 mg/l, 29° C.; for inhibition at 500 µg/mL: Botrytis cinerea, read-out: Percent Growth Inhibition, BOT CIN
Text: as §1, §2, §3

Erysiphe graminis = test: Powdery mildew in barley, foliar application (ERY GRA); format: in vivo; conditions: foliar, 1,000 mg/l, 8 days after inoculation; for pest or weed control at 1000 µg/mL: Blumeria graminis, foliar, 192 h, read-out: Percent Reduction of Disease, ERY GRA
Method: Compositions containing Compounds Nos. 1-81 were prepared by dissolving 0.24 grams of each of the compounds in 8 ml of acetone or other suitable inert solvent. Each of the resultant solutions was treated with 3 drops of TWEEN 20 (ethoxylated ethylene sorbitan monolaurate, a non-ionic surfactant)(I.C.I.), and water was added to form an emulsion. The degree of dilution with water was dictated by the desired concentration of the compound in the composition. The greater the quantity of water added, the lower the concentration of the compound in the composition, reported in milligrams per liter (mg/l) Ten plants of "Robust" variety barley were planted in each of a plurality of pots. Each pot was then either sprayed with one of the compositions of Example 9, at a composition concentration of 1,000 mg/l, or left unsprayed. For each pot sprayed, one pot was left unsprayed as a control. After the leaves of the sprayed pots were dried, the sprayed pots and the unsprayed control pots were placed in a greenhouse maintained at 21° C. All the pots were then inoculated with barley powdery mildew fungus, Erysiphe graminis. This inoculation was accomplished by distributing spores of the fungus over the leaves of the plants to be tested from plants which had previously been infected with the mildew disease. […] Again, percent control was computed by comparing the treatment scores with the scores of the untreated controls. The results are summarized in Table II under the heading "ERY GRA".

Erysiphe cichoracearum = test: Powdery mildew of cucumber, systemic root uptake (CMS); format: in vivo; conditions: 45 ml of 250 mg/l, 8 days after inoculation
Method: Compositions containing Compounds Nos. 1-81 were prepared by dissolving 0.24 grams of each of the compounds in 8 ml of acetone or other suitable inert solvent. Each of the resultant solutions was treated with 3 drops of TWEEN 20 (ethoxylated ethylene sorbitan monolaurate, a non-ionic surfactant)(I.C.I.), and water was added to form an emulsion. The degree of dilution with water was dictated by the desired concentration of the compound in the composition. The greater the quantity of water added, the lower the concentration of the compound in the composition, reported in milligrams per liter (mg/l) […] Upon reaching these ages, the plants were either treated with 45 ml of 250 mg/l concentration of the compositions of Example 9 or were left untreated. The untreated plants were used as controls. The 45 ml compositions saturated the soil of the treated pots without significant loss through drainage into the saucers below the pots. Twenty-four hours after the treatment with the compositions, both the barley and cucumber plants in all the pots, those treated and those untreated, were inoculated with powdery mildew fungus. This was accomplished by tapping leaves of previously infected barley and cucumber plants over the treated and untreated pots containing the barley and cucumber plants, respectively, to distribute spores of the fungus over the plants tested. […] Intermediate ratings were assigned depending on the degree of disease. […] The results of the powdery mildew disease control of barley are reported under the heading of "BMS". The results for cucumber mildew control are reported under the heading "CMS".

Uromyces phaseoli = test: Bean rust fungus eradicant test (URO PHA); format: in vivo; conditions: pinto bean, eradicant spray 2 days after inoculation, 1,000 mg/l; for pest or weed control at 1000 µg/mL: Uromyces phaseoli, 216 h, read-out: Percent Reduction of Disease, URO PHA
Method: Compositions containing Compounds Nos. 1-81 were prepared by dissolving 0.24 grams of each of the compounds in 8 ml of acetone or other suitable inert solvent. Each of the resultant solutions was treated with 3 drops of TWEEN 20 (ethoxylated ethylene sorbitan monolaurate, a non-ionic surfactant)(I.C.I.), and water was added to form an emulsion. The degree of dilution with water was dictated by the desired concentration of the compound in the composition. The greater the quantity of water added, the lower the concentration of the compound in the composition, reported in milligrams per liter (mg/l) A plurality of pots were each planted with two pinto bean plants, Phaseolus vulgaris, each, susceptible to rust disease. When the plants were 7 days old, at the primary leaf stage of growth, they were all sprayed with a suspension containing 20,000 spores of the bean rust fungus, Uromyces phaseoli, per ml. All the pots were then incubated in a controlled environmental chamber, maintained at 99% humidity and 21° C., for 24 hours to allow infection to occur. The plants were then removed from the incubator and allowed to dry. Two days after inoculation each of the infected plants was then either sprayed with one of the compositions of Example 9, at a dosage of 1,000 mg/l, or left unsprayed. The unsprayed plants acted as controls. All of the sprayed and unsprayed plants were then placed in a greenhouse at 21° C. for nine days to allow the disease to develop. […] Control of disease was determined by comparing treated plants with the untreated controls. The results, expressed as percent reduction of disease, are summarized in Table II under the heading "URO PHA".

Helminthosporium sativum = test: Barley spot blotch, foliar treatment (HEL SAT); format: in vivo; conditions: foliar, 1,000 mg/l; for pest or weed control at 1000 µg/mL: Helminthosporium, foliar, 216 h, read-out: Percent Reduction of Disease, HEL SAT
Method: Compositions containing Compounds Nos. 1-81 were prepared by dissolving 0.24 grams of each of the compounds in 8 ml of acetone or other suitable inert solvent. Each of the resultant solutions was treated with 3 drops of TWEEN 20 (ethoxylated ethylene sorbitan monolaurate, a non-ionic surfactant)(I.C.I.), and water was added to form an emulsion. The degree of dilution with water was dictated by the desired concentration of the compound in the composition. The greater the quantity of water added, the lower the concentration of the compound in the composition, reported in milligrams per liter (mg/l) Ten plants of six day-old Barley (variety "Robust") were planted in each of a plurality of pots. Each pot was then either sprayed with one of the compositions of Example 9, at a concentration of 1,000 mg/l, or left unsprayed. The unsprayed plants were used as controls. An equal number of pots were sprayed and unsprayed. All plants, sprayed and unsprayed, were thereafter inoculated with spores of the blotch fungus Helminthosporium sativum. All inoculated plants were placed in a 99% humidity chamber for 24 hours and then placed in a greenhouse, maintained at a temperature of 21° C., for eight days. […] Percent control was computed and the results are summarized in Table II under the heading "HEL SAT".

SMILES	pest or weed control at 1000 µg/mL (Pyricularia oryzae)	inhibition at 500 µg/mL (Septoria nodorum)	inhibition at 500 µg/mL (Rhizoctonia solani)	inhibition at 500 µg/mL (Botrytis cinerea)	pest or weed control at 1000 µg/mL (Erysiphe graminis)	Percent Reduction of Disease, CMS (Erysiphe cichoracearum)	pest or weed control at 1000 µg/mL (Uromyces phaseoli)	pest or weed control at 1000 µg/mL (Helminthosporium sativum)	Percent Reduction of Disease, PYR ORY (Pyricularia oryzae)	Percent Growth Inhibition, SEP NOD (Septoria nodorum)	Percent Growth Inhibition, RHI SOL (Rhizoctonia solani)	Percent Growth Inhibition, BOT CIN (Botrytis cinerea)	Percent Reduction of Disease, ERY GRA (Erysiphe graminis)	Percent Reduction of Disease, URO PHA (Uromyces phaseoli)	Percent Reduction of Disease, HEL SAT (Helminthosporium sativum)
CCCC(C#N)(CCCc1ccc(Cl)cc1)c1cccnc1 (stereo not shown) [Compound 12]	85%	70%	98%	98%	100%	40%	100%	100%	–	–	–	–	–	–	–
CCCCC(C#N)(CCCc1ccc(Cl)cc1)c1cccnc1 (stereo not shown) [Compound 13]	85%	75%	100%	98%	100%	0%	100%	100%	–	–	–	–	–	–	–
CCCC(C#N)(Cc1ccc(C(C)(C)C)cc1)c1cccnc1 (stereo not shown) [Compound 14]	100%	0%	5%	15%	100%	84%	33%	60%	–	–	–	–	–	–	–
CCCC(C#N)(CCCc1ccccc1Cl)c1cccnc1 (stereo not drawn) [Compound 15, 2-chloro-α-propyl-(3-pyridinyl)benzene pentanenitrile]	85%	93%	98%	30%	100%	96%	83%	100%	–	–	–	–	–	–	–
CCCCCCC(C#N)(Cc1ccc(C(C)(C)C)cc1)c1cccnc1 (stereo not shown) [Compound 16]	20%	45%	25%	20%	85%	0%	0%	85%	–	–	–	–	–	–	–
CCCC(C#N)(Cc1ccc(Oc2ccccc2)cc1)c1cccnc1 (stereo not shown) [Compound 17]	70%	55%	45%	5%	70%	100%	0%	0%	–	–	–	–	–	–	–
C=CCC(C#N)(Cc1ccc(C(C)(C)C)cc1)c1cccnc1 (stereo not shown) [Compound 18]	85%	5%	40%	10%	100%	20%	0%	100%	–	–	–	–	–	–	–
CCCCC(C#N)(Cc1ccc(C(C)(C)C)cc1)c1cccnc1 (stereo not shown) [Compound 19]	35%	96%	91%	40%	100%	0%	0%	100%	–	–	–	–	–	–	–
CCCC(C#N)(CCc1ccccc1)c1ccncc1 (stereo not shown) [Compound 25]	0%	19%	4%	55%	67%	17%	17%	0%	–	–	–	–	–	–	–
CCCCC(C#N)(CCc1ccccc1)c1ccncc1 (stereo not shown) [Compound 26]	0%	45%	4%	5%	50%	0%	0%	0%	–	–	–	–	–	–	–
C=CCC(C#N)(CCc1ccc(OC)cc1)c1ccccn1 (stereo not shown) [Compound 28]	–	–	–	–	–	0%	–	–	85%	96%	60%	98%	90%	100%	100%
COc1ccc(CCC(C#N)(CC(C)C)c2ccccn2)cc1 (stereo not shown) [Compound 29]	–	–	–	–	–	0%	–	–	85%	83%	70%	98%	100%	100%	100%
CCCCCC(C#N)(CCc1ccc(OC)cc1)c1ccccn1 (stereo not shown) [Compound 30]	–	–	–	–	–	0%	–	–	100%	96%	10%	88%	100%	100%	90%
CCCCC(C#N)(CCc1ccc(OC)cc1)c1ccccn1 (stereo not shown) [Compound 31]	–	–	–	–	–	0%	–	–	0%	81%	5%	89%	20%	35%	90%
